Assay results published in patent US20230355597A1, “COMPOUNDS, COMPOSITIONS, AND METHODS FOR THE TREATMENT AND PREVENTION OF AVIAN PATHOGENIC E. COLI (APEC)” (OHIO STATE INNOVATION FOUNDATION, priority 2018, published 2023).

Columns and labels:
[1] = system: AI-2 activity of APEC O78; assay: AI-2 bioluminescence indicator assay (V. harveyi BB170); details: APEC O78, 100 µM
Rif^r APEC O78 [2] = assay: In vivo screening of quorum sensing inhibitors in APEC infected broiler chickens; details: for reduction in chicken mortality: DMSO control mortality normalized to 100%; for Mortality rate (%): oral gavage once a day, day 4 to day 8, DMSO control 66.7%; for Reduction in APEC lesions severity, Air-sacs (%) / Reduction in APEC lesions severity, Heart (%) / Reduction in APEC lesions severity, Liver (%) / Reduction in APEC lesions severity, Lung (%): vs DMSO treated control
AI-2 activity of APEC O1 = assay: AI-2 bioluminescence indicator assay (V. harveyi BB170); details: APEC O1, 100 µM
[3] = system: AI-2 activity of APEC O109; assay: as above; details: APEC O109, 100 µM
Rif^r APEC O78 [4] = assay: Wax moth (Galleria mellonella) larva infection model (AI-2 inhibitors)
[5] = system: AI-2 activity of APEC O15; assay: AI-2 bioluminescence indicator assay (V. harveyi BB170); details: APEC O15, 100 µM
AI-2 activity of APEC O8 = assay: as above; details: APEC O8, 100 µM
[6] = system: AI-2 activity of APEC O35; assay: as above; details: APEC O35, 100 µM
[7] = system: AI-2 activity of APEC O115; assay: as above; details: APEC O115, 100 µM
AI-2 activity of APEC O2 = assay: as above; details: APEC O2, 100 µM
[8] = system: AI-2 activity of APEC O18; assay: as above; details: APEC O18, 100 µM

`Cc1ccccc1N1CCN(C2CCCN(C(=O)c3ccc(F)c(Cl)c3)C2)CC1` (stereo not drawn) [C2, 1-[1-{3-chloro-4-fluorbenzoyl)-3-piperdinyl]-4-(2-methylphenyl)piperazine] was tested, and the “Inhibition % of AI-2 activity” value [1] was 92%, the “reduction in chicken mortality” value (Rif^r APEC O78 [2]) was 50% and the “Mortality rate (%)” value (Rif^r APEC O78 [2]) was 33.3%. For the same compound, the “Reduction in APEC lesions severity, Air-sacs (%)” value (Rif^r APEC O78 [2]) was 63.3%, the “Reduction in APEC lesions severity, Heart (%)” value (Rif^r APEC O78 [2]) was 37.5% and the “Reduction in APEC lesions severity, Liver (%)” value (Rif^r APEC O78 [2]) was 45.5%. The “Reduction in APEC lesions severity, Lung (%)” value (Rif^r APEC O78 [2]) was 88.9%, the “Inhibition % of AI-2 activity” value (AI-2 activity of APEC O1) was 64% and the “Inhibition % of AI-2 activity” value [3] was 57%. The larval death (Rif^r APEC O78 [4]; 48 h post treatment) was “no larval death”, the “clearance of APEC in live larvae” value (Rif^r APEC O78 [4]; 72 h) was 100% and the “Inhibition % of AI-2 activity” value [5] was 27%. The “Inhibition % of AI-2 activity” value (AI-2 activity of APEC O8) was 20%, the “Inhibition % of AI-2 activity” value [6] was 55% and the “Inhibition % of AI-2 activity” value [7] was 52%. For the same compound, the “Inhibition % of AI-2 activity” value (AI-2 activity of APEC O2) was 96% and the “Inhibition % of AI-2 activity” value [8] was 43%.
In the case of `O=C(CCN1CCN(c2ccccc2F)CC1)Nc1ccc(Br)cc1` [C7, N-(4-bromophenyl)-3-[4-(2-fluomphenyl)-1-piperazinyl]propanamide], the “Inhibition % of AI-2 activity” value [1] is reported as 94%, the “reduction in chicken mortality” value (Rif^r APEC O78 [2]) is reported as “did not reduce” and the “Mortality rate (%)” value (Rif^r APEC O78 [2]) is reported as 66.7%. For the same compound, the “Reduction in APEC lesions severity, Air-sacs (%)” value (Rif^r APEC O78 [2]) was 33.3%, the “Reduction in APEC lesions severity, Heart (%)” value (Rif^r APEC O78 [2]) was 33.3% and the “Reduction in APEC lesions severity, Liver (%)” value (Rif^r APEC O78 [2]) was 33.3%. For the same compound, the “Reduction in APEC lesions severity, Lung (%)” value (Rif^r APEC O78 [2]) was 83.3%, the “Inhibition % of AI-2 activity” value (AI-2 activity of APEC O1) was 47% and the “Inhibition % of AI-2 activity” value [3] was 67%. For the same compound, the larval death (Rif^r APEC O78 [4]; 72 h post treatment) was “no larval death”, the “Inhibition % of AI-2 activity” value [5] was 36% and the “Inhibition % of AI-2 activity” value (AI-2 activity of APEC O8) was 2%. For the same compound, the “Inhibition % of AI-2 activity” value [6] was 62%, the “Inhibition % of AI-2 activity” value [7] was 45% and the “Inhibition % of AI-2 activity” value (AI-2 activity of APEC O2) was 83%. The “Inhibition % of AI-2 activity” value [8] was 48%.
